Results: PubChem BioAssay AID330 (DTP/NCI, 2004)
Values joined by “and” are separate entries in the source; they are usually repeats but may differ in a detail not shown here. Equal values may be shown once. Inconclusive results and toxic doses are left out. The calls were made as follows: active = survival T/C of 150% or more; inactive = T/C below 125% in these data.

Tested on: P388 leukemia ip, CD2F1 mice, survival T/C
Assay: NCI In Vivo Anticancer Drug Screen. Data for tumor model P388 Leukemia (intraperitoneal) in CD2F1 (CDF1) mice
Conditions: endpoint: median survival time, higher = longer survival
Outline: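 Mice carrying the transplanted tumor received test compound or vehicle. Survival was recorded in each group, and the value is the treated-group measurement divided by that of the vehicle-treated control group.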

[1] = dose: 50.0 mg/kg/injection, schedule: Q01DX005 (ip), vehicle: saline with Tween-80
[2] = dose: 100.0 mg/kg/injection, schedule: Q01DX005 (ip), vehicle: saline with Tween-80
[3] = dose: 200.0 mg/kg/injection, schedule: Q01DX005 (ip), vehicle: saline with Tween-80
[4] = dose: 12.5 mg/kg/injection, schedule: Q01DX009 (ip), vehicle: saline with Tween-80
[5] = dose: 25.0 mg/kg/injection, schedule: Q01DX009 (ip), vehicle: saline with Tween-80
[6] = dose: 60.0 mg/kg/injection, schedule: Q01DX005 (ip), vehicle: saline with Tween-80
[7] = dose: 120.0 mg/kg/injection, schedule: Q01DX005 (ip), vehicle: saline with Tween-80
[8] = dose: 240.0 mg/kg/injection, schedule: Q01DX005 (ip), vehicle: saline with Tween-80
[9] = dose: 50.0 mg/kg/injection, schedule: Q01DX009 (ip), vehicle: saline

Measured: T/C

c1ncc2[nH]cnc2n1
inactive: dose: 100.0 mg/kg/injection, schedule: Q01DX009 (ip), vehicle: saline sonified 100 % of control | dose: 100.0 mg/kg/injection, schedule: Q04DX003 (ip), vehicle: saline 104 % of control | dose: 200.0 mg/kg/injection, schedule: Q01DX009 (ip), vehicle: saline sonified 104 % of control | dose: 200.0 mg/kg/injection, schedule: Q04DX003 (ip), vehicle: saline 104 % of control | dose: 400.0 mg/kg/injection, schedule: Q01DX009 (ip), vehicle: saline sonified 100 % of control | dose: 400.0 mg/kg/injection, schedule: Q04DX003 (ip), vehicle: saline 104 % of control

COc1ccc2nc(-n3[nH]c(C)c(-c4cc(C)[nH]n4)c3=O)cc(C)c2c1
inactive: [1] 91 % of control | [2] 91 % of control | [3] 90 % of control

CCCCCCCCCCCC1=C(O)C(=O)C=C(O)C1=O
inactive: dose: 6.25 mg/kg/injection, schedule: Q01DX009 (ip), vehicle: saline with Tween-80 101 % of control | [4] 106 % of control | [5] 102 % of control

CC(=O)NC1C(OC(C)=O)OC(C[Se][As](C)C)C(OC(C)=O)C1OC(C)=O (stereo unspecified)
inactive: dose: 50.0 mg/kg/injection, schedule: Q01DX009 (ip), vehicle: Klucel (hydroxypropylcellulose) (HPC) 105 % of control | dose: 100.0 mg/kg/injection, schedule: Q01DX009 (ip), vehicle: Klucel (hydroxypropylcellulose) (HPC) 110 % of control

CNC(=O)OCc1snc(-c2ccccc2)c1COC(=O)NC
inactive: dose: 12.5 mg/kg/injection, schedule: Q01DX005 (ip), vehicle: distilled water + Tween-80 99 % of control | dose: 25.0 mg/kg/injection, schedule: Q01DX005 (ip), vehicle: distilled water + Tween-80 101 % of control | dose: 50.0 mg/kg/injection, schedule: Q01DX005 (ip), vehicle: distilled water + Tween-80 99 % of control | dose: 100.0 mg/kg/injection, schedule: Q01DX005 (ip), vehicle: distilled water + Tween-80 96 % of control | dose: 200.0 mg/kg/injection, schedule: Q01DX005 (ip), vehicle: distilled water + Tween-80 108 % of control

COc1ccc2c(c1)C=CC1OC(C(C)=O)(C(C)=O)C(C=O)=CN21 (stereo unspecified)
inactive: [6] 92 % of control | [7] 89 % of control | [8] 98 % of control

CCOC(=O)C[C@@]1(C)C(=O)O[C@H](c2ccccc2)N1C(=O)c1ccccc1
inactive: [6] 106 % of control | [7] 100 % of control | [8] 94 % of control

O=C1C(c2ccc3ccccc3n2)=C(O)c2ccccc21
inactive: dose: 15.0 mg/kg/injection, schedule: Q01DX005 (ip), vehicle: Klucel (hydroxypropylcellulose) (HPC) 101 % of control | dose: 30.0 mg/kg/injection, schedule: Q01DX005 (ip), vehicle: Klucel (hydroxypropylcellulose) (HPC) 96 % of control | dose: 60.0 mg/kg/injection, schedule: Q01DX005 (ip), vehicle: Klucel (hydroxypropylcellulose) (HPC) 101 % of control and 88 % of control

Cc1cc2c(cc1C)NS(=O)(=O)N2
inactive: [6] 102 % of control | [7] 109 % of control | [8] 102 % of control

O=C(Nc1ccc(Cl)cc1)Nc1ccc(Cl)nn1
inactive: dose: 3.12 mg/kg/injection, schedule: Q04DX002 (ip), vehicle: Klucel (hydroxypropylcellulose) (HPC) 101 % of control | dose: 6.25 mg/kg/injection, schedule: Q04DX002 (ip), vehicle: Klucel (hydroxypropylcellulose) (HPC) 102 % of control | dose: 12.5 mg/kg/injection, schedule: Q04DX002 (ip), vehicle: Klucel (hydroxypropylcellulose) (HPC) 98 % of control | dose: 25.0 mg/kg/injection, schedule: Q04DX002 (ip), vehicle: Klucel (hydroxypropylcellulose) (HPC) 115 % of control | dose: 50.0 mg/kg/injection, schedule: Q04DX002 (ip), vehicle: Klucel (hydroxypropylcellulose) (HPC) 90 % of control | dose: 100.0 mg/kg/injection, schedule: Q04DX002 (ip), vehicle: Klucel (hydroxypropylcellulose) (HPC) 88 % of control and 95 % of control

c1ccc2c(C3CO3)c3ccccc3c(C3CO3)c2c1 (stereo unspecified)
inactive: [9] 99 % of control | dose: 100.0 mg/kg/injection, schedule: Q01DX009 (ip), vehicle: saline 116 % of control | dose: 200.0 mg/kg/injection, schedule: Q01DX009 (ip), vehicle: saline 116 % of control

CCOc1ccccc1N=Nc1c(-c2ccccc2)nn(C(=S)S)c1-c1ccccc1
inactive: [1] 107 % of control | [2] 109 % of control | [3] 110 % of control

COc1ccc2cc3n(c(=N)c2c1OC)CCc1cc2c(cc1-3)OCO2
inactive: dose: 0.63 mg/kg/injection, schedule: Q01DX009 (ip), vehicle: water 101 % of control | dose: 1.25 mg/kg/injection, schedule: Q01DX009 (ip), vehicle: water 110 % of control | dose: 2.5 mg/kg/injection, schedule: Q01DX009 (ip), vehicle: water 105 % of control | dose: 5.0 mg/kg/injection, schedule: Q01DX009 (ip), vehicle: water 110 % of control | dose: 10.0 mg/kg/injection, schedule: Q01DX009 (ip), vehicle: water 110 % of control | dose: 20.0 mg/kg/injection, schedule: Q01DX009 (ip), vehicle: water 110 % of control

CC1(C)CC(N2CCOCC2)=CC(=NCc2ccccc2)N1
inactive: dose: 12.5 mg/kg/injection, schedule: Q01DX005 (ip), vehicle: Klucel (hydroxypropylcellulose) (HPC) 107 % of control | dose: 25.0 mg/kg/injection, schedule: Q01DX005 (ip), vehicle: Klucel (hydroxypropylcellulose) (HPC) 99 % of control | dose: 50.0 mg/kg/injection, schedule: Q01DX005 (ip), vehicle: Klucel (hydroxypropylcellulose) (HPC) 100 % of control and 101 % of control

CCCCCCC(/C=C/c1ccc(Cl)c(Cl)c1)=N\NC(=O)C[N+](C)(C)C
inactive: [4] 100 % of control | [5] 103 % of control | [9] 98 % of control

CCCCCCCCCCC1OCN2CC(CC)CCC12 (stereo unspecified)
inactive: dose: 50.0 mg/kg/injection, schedule: Q01DX005 (ip), vehicle: saline 100 % of control | dose: 100.0 mg/kg/injection, schedule: Q01DX005 (ip), vehicle: saline 101 % of control | dose: 200.0 mg/kg/injection, schedule: Q01DX005 (ip), vehicle: saline 105 % of control

O=C1C=CC(=O)C2=C1C1C3=C(C(=O)C=CC3=O)C2c2ccccc21
inactive: dose: 50.0 mg/kg/injection, schedule: Q01DX009 (ip), vehicle: saline with Tween-80 110 % of control | dose: 100.0 mg/kg/injection, schedule: Q01DX009 (ip), vehicle: saline with Tween-80 106 % of control | dose: 200.0 mg/kg/injection, schedule: Q01DX009 (ip), vehicle: saline with Tween-80 101 % of control
